For ten compounds, IC50 results are on record in ChEMBL document CHEMBL3621124, “Synthesis, cytotoxicity and inhibition of NO production of ivangustin enantiomer analogues” (Eur J Med Chem, 2015).

As usually defined, the IC50 is the point on the concentration scale where inhibition reaches its midpoint.

The test system of one assay is HCT-116. Nature of the assay: Cytotoxicity against human HCT116 cells assessed as growth inhibition incubated for 72 hrs by MTT assay. Type of assay: functional, cell-based. As to conditions: HCT-116, 72 h. In general terms: Formazan colour is commonly taken as a measure of viable cells.
Another assay relates to HL-60. The experiment in a line: Cytotoxicity against human HL60 cells assessed as growth inhibition incubated for 72 hrs by CCK8 assay. Type of assay: functional, cell-based. As to conditions: HL-60, 72 h.
The subject of another assay is MCF7. Nature of the assay: Cytotoxicity against human MCF7 cells assessed as growth inhibition incubated for 72 hrs by MTT assay. Type of assay: functional, cell-based. Particulars: MCF7, 72 h.
Assay [1] concerns RAW264.7. The experiment in a line: Cytotoxicity against LPS-induced mouse RAW264.7 cells incubated for 18 hrs by MTT assay. Type of assay: cell-based. Particulars: RAW264.7, 18 h.
Assay [2] concerns RAW264.7. Nature of the assay: Anti-inflammatory activity against LPS-induced mouse RAW264.7 cells assessed as inhibition of nitric oxide production incubated for 20 mins before LPS induction by Griess method. Type of assay: functional, cell-based. On the technique in general: Nitrite, measured by Griess reagent, commonly stands in for NO production.
The subject of another assay is A549. Nature of the assay: Cytotoxicity against human A549 cells assessed as growth inhibition incubated for 72 hrs by MTT assay. Type of assay: functional, cell-based. As to conditions: A549, 72 h.
A further assay concerns SMMC-7721. Nature of the assay: Cytotoxicity against human SMMC7721 cells assessed as growth inhibition incubated for 72 hrs by MTT assay. Type of assay: functional, cell-based. As to conditions: SMMC-7721, 72 h.
Assay [3] in a line: Cytotoxicity against human QGY7701 cells assessed as growth inhibition incubated for 72 hrs by MTT assay. Type of assay: functional, cell-based. Particulars: QGY7701, 72 h.

For the compound `C=C(C)CC[C@H](OC(C)=O)[C@@]1(C)C[C@@H]2OC(=O)C(=C)[C@@H]2CC1=O`, the IC50 with HCT-116 was found to be 8.53 µM; with HL-60 it was 7.31 µM; in the assay on MCF7 it was 12 µM; with RAW264.7 [1], 14.4 µM; with RAW264.7 [2] it was 4.63 µM; in the assay on A549 it was 11 µM. Also, the IC50 with SMMC-7721 was 24.8 µM; in assay [3] it was 4.88 µM.
As for `C=C(C)CC[C@H](O)[C@@]1(C)C[C@@H]2OC(=O)C(=C)[C@@H]2CC1=O`, the IC50 in the assay on HCT-116 was determined as 19.2 µM; in the assay on HL-60, 14.8 µM; with MCF7, 18.9 µM; in the assay on RAW264.7 [1], 26.6 µM; in the assay on RAW264.7 [2], 6.12 µM; in the assay with A549 it was 17.4 µM. Besides, the IC50 with SMMC-7721 is 53.1 µM; in assay [3] it was 8.7 µM.
As to `C=C1C(=O)O[C@H]2C[C@@]3(C)C(=O)[C@@H]([C@@H]12)[C@](O)(CC)C[C@@H]3OCOC`, the IC50 in the assay with HCT-116 stood at 14.5 µM; with HL-60, 9.37 µM; in the assay on MCF7, 16.4 µM; in the assay on RAW264.7 [1], 20.1 µM; with RAW264.7 [2], 6.7 µM; in the assay with A549, 17 µM. The IC50 with SMMC-7721 was determined as 31.7 µM; in assay [3] it was 7.75 µM.
Take `C=C1C(=O)O[C@H]2C[C@](C)(/C=C/C(=O)CC)C(=O)C[C@@H]12`: the IC50 came to 5.8 µM in the assay with HCT-116; 1.02 µM with HL-60; 9.03 µM in the assay with MCF7; 9.94 µM in the assay on RAW264.7 [1]; 4.72 µM in the assay with RAW264.7 [2]; 10.5 µM in the assay on A549. The IC50 in the assay on SMMC-7721 was 25.4 µM; in assay [3], 6.16 µM.
For the compound `C=C1C(=O)O[C@H]2C[C@](C)(C(=O)CC(=O)CC)C(=O)C[C@@H]12`, the IC50 with HCT-116 came out at 21 µM; in the assay with HL-60, 16.4 µM; in the assay on MCF7, 27.2 µM; with RAW264.7 [1] it was 47.2 µM; in the assay with RAW264.7 [2] it was 6.99 µM; in the assay with A549, 21.9 µM. Moreover, the IC50 was determined as 48.6 µM with SMMC-7721 and 13.7 µM in assay [3].
Take `C=C1C(=O)O[C@H]2C[C@]3(C)C(=O)C=C(CC)OC3=C[C@@H]12`: the IC50 with HCT-116 was found to be 9.37 µM; with HL-60 it was 5.06 µM; in the assay on MCF7 it was 7.86 µM; in the assay on RAW264.7 [1], 10.3 µM; in the assay with RAW264.7 [2], 3.44 µM; in the assay on A549, 9.58 µM. For the same compound, the IC50 was found to be 19.6 µM in the assay on SMMC-7721 and 3.55 µM in assay [3].
For the compound `C=C1C(=O)O[C@H]2C[C@]3(C)C(=O)C=C(CC)[C@@H](C3=O)[C@@H]12`, the IC50 in the assay on HCT-116 was found to be 9.94 µM; with HL-60 it was 3.8 µM; in the assay with MCF7 it was 11.6 µM; in the assay on RAW264.7 [1], 12.2 µM; in the assay with RAW264.7 [2] it was 4.26 µM; in the assay on A549, 9.65 µM. For the same compound, the IC50 in the assay on SMMC-7721 was determined as 27.2 µM; in assay [3], 5.55 µM.
As for `C=C1C(=O)O[C@H]2C[C@@H](C)C(=O)C[C@@H]12`, the 50% inhibitory concentration (IC50) worked out at 18.3 µM in the assay with HCT-116; 12.6 µM in the assay on HL-60; 15.7 µM in the assay with MCF7; 30.6 µM with RAW264.7 [1]; 5.82 µM with RAW264.7 [2]; 14.9 µM with A549. Also, the values for the 50% inhibitory concentration (IC50) (in the assay with SMMC-7721; in assay [3]) were 42.6 µM and 8.58 µM, respectively.
With `COc1cccc2c1C(=O)c1c(O)c3c(c(O)c1C2=O)C[C@@](O)(C(=O)CO)C[C@@H]3O[C@H]1C[C@H](N)[C@H](O)[C@H](C)O1` [DOXORUBICIN], the values for the IC50 with HCT-116 and with SMMC-7721 were 0.18 µM and 0.57 µM, respectively.
Turning to `N=C(N)NN` [PIMAGEDINE], the IC50 with RAW264.7 [2] was 11.9 µM.
